Patent US12514938B2, “Fibroblast activation protein targeting peptides” (PERSPECTIVE THERAPEUTICS, INC., priority 2023, dated 2026)
pKd, pKi: −log10 of the molar value. *1 amine or outer side, *2 acyl side, *3 side chain or, on linkers, in order; H or OH if unused. Where a SMILES comes first, the peptide text is derived from it. Bridges are numbered along the chain shown (N, C = ends). The star is where a group is joined. X1 = NC(=O)CN1CCN(CC(=O)O)CCN(CC(=O)*)CCN(CC(=O)O)CC1; oXylylene = c1ccc(C[*:2])c(C[*:1])c1; PEG2 = NCCOCCOCCC(=O)O

Assays:
[1] = biological target: T1, Human Fibroblast Activation Protein (FAP) (Homo sapiens, UniProt Q12884); test: Enzyme inhibition assay against human FAP (substrate Z-GP-AMC), Example 1; format: biochemical; details: human FAP 5 ng/well, 50 μM Z-GP-AMC; Ki from IC50 by Cheng-Prusoff
T1 sequence (Q12884 1-760): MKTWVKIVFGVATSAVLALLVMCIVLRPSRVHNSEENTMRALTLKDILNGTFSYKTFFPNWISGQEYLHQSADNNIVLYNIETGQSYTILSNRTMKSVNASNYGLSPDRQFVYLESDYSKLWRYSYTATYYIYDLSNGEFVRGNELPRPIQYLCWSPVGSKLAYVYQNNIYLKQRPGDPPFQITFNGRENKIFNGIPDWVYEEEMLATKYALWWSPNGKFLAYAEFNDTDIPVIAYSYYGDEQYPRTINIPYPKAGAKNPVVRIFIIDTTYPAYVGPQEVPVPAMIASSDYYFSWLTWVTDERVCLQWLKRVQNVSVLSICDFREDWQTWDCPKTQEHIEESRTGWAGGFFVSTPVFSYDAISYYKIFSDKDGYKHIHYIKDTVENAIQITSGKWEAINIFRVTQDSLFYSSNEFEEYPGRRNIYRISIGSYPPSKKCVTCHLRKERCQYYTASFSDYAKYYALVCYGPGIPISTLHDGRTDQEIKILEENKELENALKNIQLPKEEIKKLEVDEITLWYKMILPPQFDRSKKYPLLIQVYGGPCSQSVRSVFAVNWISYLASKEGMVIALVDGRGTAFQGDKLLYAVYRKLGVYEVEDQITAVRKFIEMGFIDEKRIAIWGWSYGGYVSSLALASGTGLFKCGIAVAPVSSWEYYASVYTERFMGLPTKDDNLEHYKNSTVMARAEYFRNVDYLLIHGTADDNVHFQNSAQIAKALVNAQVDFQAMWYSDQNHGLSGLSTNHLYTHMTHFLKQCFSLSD
Outline: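 FAP (5 ng/well) preincubated 10 min at RT with peptide (10^−6 to 10^−12), then 50 μM Z-GP-AMC added for 1 h at RT, protected from light. Buffer 50 mM Tris-HCl, 1 M NaCl, 1 mg/mL BSA, pH 7.5; fluorescence at ex/em 360/460. IC50 from non-linear regression, converted to Ki via Cheng-Prusoff using known substrate Km.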

[2] = biological target: human dipeptidyl peptidase 4 (DPPIV) (Homo sapiens, UniProt P27487); test: Enzyme inhibition assay, binding specificity of VMT-FAP-2-59 (Example 3, substrate GP-AMC); format: biochemical; details: 50 μM GP-AMC
Description: The enzyme inhibition assay was performed to determine inhibitor constant (i.e., Ki) values against human FAP, mouse FAP, human dipeptidyl peptidase 4 (DPPIV) and human prolyl endopeptidase (PREP). Z-GP-AMC was used as substrate for human FAP, mouse FAP and human PREP. GP-AMC was used as substrate for human DPPIV. To perform the assay, VMT-FAP-2-59 at varying concentrations (i.e. 10^−6 to 10^−12) were incubated with 5 ng hFAP, 5 ng mFAP, 2.5 ng DPPIV, or 5 ng PREP in a black 96-well plate for 10 minutes at RT on a shaker plate. The substrate was added to give a final concentration of 50 μM for Z-GP-AMC and GP-AMC. The total reaction volume per well was 100 μL The reaction was allowed to incubate at RT on a shaker plate for 1 hour protected from light, and then fluorescence was read with a BioTek Synergy LX plate reader at an ex/em (360/40 and 460/40). Experiments were performed in at least duplicate. Buffer only, buffer/enzymes, buffer/substrate and enzyme only were included as controls. Data was plotted in GraphPad Prism and non-linear regression used to calculate IC50 values. Binding kinetics (Kd) of VMT-FAP-2-59 against human FAP, human DPPIV and human PREP were also determined by grating-coupled interferometry (GCI). hFAP, hDPPIV and hPREP proteins were fixed on PCH (N=3) chips or PCP (N=2). […] On PCP chips, binding affinity of VMT-FAP-2-29 to hFAP was determined from 39 pM to 20 nM. […]

human DPPIV = human DPPIV (Homo sapiens, UniProt P27487); test: Grating-coupled interferometry (GCI) binding kinetics
Description: (§1) The enzyme inhibition assay was performed to determine inhibitor constant (i.e., Ki) values against human FAP, mouse FAP, human dipeptidyl peptidase 4 (DPPIV) and human prolyl endopeptidase (PREP). Z-GP-AMC was used as substrate for human FAP, mouse FAP and human PREP. GP-AMC was used as substrate for human DPPIV. To perform the assay, VMT-FAP-2-59 at varying concentrations (i.e. 10^−6 to 10^−12) were incubated with 5 ng hFAP, 5 ng mFAP, 2.5 ng DPPIV, or 5 ng PREP in a black 96-well plate for 10 minutes at RT on a shaker plate. The substrate was added to give a final concentration of 50 μM for Z-GP-AMC and GP-AMC. The total reaction volume per well was 100 μL The reaction was allowed to incubate at RT on a shaker plate for 1 hour protected from light, and then fluorescence was read with a BioTek Synergy LX plate reader at an ex/em (360/40 and 460/40). Experiments were performed in at least duplicate. Buffer only, buffer/enzymes, buffer/substrate and enzyme only were included as controls. Data was plotted in GraphPad Prism and non-linear regression used to calculate IC50 values. Binding kinetics (Kd) of VMT-FAP-2-59 against human FAP, human DPPIV and human PREP were also determined by grating-coupled interferometry (GCI). hFAP, hDPPIV and hPREP proteins were fixed on PCH (N=3) chips or PCP (N=2). […] On PCP chips, binding affinity of VMT-FAP-2-29 to hFAP was determined from 39 pM to 20 nM. Binding affinity to hDPPIV and hPREP was determined at concentration from 39 pM to 50 nM.

human FAP = biological target: T2, human FAP (Homo sapiens, UniProt Q12884); test: as above; details: GCI on PCH/PCP chips
T2 sequence (Q12884 1-760): T1 sequence (Q12884 1-760)
Description: as §1

human PREP = biological target: T3, human PREP (Homo sapiens, UniProt P48147); test: as above
T3 sequence (P48147 1-710): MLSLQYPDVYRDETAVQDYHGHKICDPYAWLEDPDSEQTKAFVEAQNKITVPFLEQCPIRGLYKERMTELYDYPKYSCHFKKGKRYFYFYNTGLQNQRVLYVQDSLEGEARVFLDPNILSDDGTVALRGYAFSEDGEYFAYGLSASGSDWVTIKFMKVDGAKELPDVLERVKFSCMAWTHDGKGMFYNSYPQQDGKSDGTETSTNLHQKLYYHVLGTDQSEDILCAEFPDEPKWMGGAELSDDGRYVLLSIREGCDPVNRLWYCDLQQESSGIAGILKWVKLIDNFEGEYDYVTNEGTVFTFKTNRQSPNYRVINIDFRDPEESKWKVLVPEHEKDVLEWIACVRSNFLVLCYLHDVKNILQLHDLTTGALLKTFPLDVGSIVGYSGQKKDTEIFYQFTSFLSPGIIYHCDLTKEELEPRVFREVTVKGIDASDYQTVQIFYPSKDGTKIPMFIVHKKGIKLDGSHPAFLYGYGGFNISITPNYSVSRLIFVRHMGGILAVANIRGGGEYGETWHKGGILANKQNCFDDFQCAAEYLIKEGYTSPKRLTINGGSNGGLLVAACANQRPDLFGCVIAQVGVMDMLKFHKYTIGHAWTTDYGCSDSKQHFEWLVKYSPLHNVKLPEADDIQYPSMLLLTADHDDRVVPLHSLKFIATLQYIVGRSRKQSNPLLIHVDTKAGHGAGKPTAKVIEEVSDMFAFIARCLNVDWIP
Description: as §1

Sequence of human dipeptidyl peptidase 4 (DPPIV) (P27487 whole entry): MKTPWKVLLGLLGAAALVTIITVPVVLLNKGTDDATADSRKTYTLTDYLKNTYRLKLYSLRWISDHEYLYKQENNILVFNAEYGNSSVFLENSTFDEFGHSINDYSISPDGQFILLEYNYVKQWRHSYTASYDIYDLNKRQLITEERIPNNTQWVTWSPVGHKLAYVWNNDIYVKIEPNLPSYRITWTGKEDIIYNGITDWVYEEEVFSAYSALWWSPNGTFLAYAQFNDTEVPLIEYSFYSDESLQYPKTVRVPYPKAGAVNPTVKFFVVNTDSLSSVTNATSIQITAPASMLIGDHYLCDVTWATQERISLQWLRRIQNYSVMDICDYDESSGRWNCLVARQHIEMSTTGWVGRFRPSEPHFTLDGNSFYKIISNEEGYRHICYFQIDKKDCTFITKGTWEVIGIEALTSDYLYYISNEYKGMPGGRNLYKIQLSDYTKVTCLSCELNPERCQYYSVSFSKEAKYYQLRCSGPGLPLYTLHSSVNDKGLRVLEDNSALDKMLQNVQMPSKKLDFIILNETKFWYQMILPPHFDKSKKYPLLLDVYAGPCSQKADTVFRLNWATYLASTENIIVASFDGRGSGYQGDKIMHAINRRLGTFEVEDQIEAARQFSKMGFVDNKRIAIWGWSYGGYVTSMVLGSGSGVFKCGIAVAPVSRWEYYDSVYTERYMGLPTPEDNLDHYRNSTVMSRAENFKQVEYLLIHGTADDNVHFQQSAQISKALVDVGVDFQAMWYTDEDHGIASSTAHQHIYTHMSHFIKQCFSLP
Sequence of human DPPIV (P27487 whole entry): as above

Question: What does the source list for `C[C@@H](O)[C@@H]1NC(=O)[C@@H](NC(=O)CCOCCOCCNC(=O)CN2CCN(CC(=O)O)CCN(CC(N)=O)CCN(CC(=O)O)CC2)CSCc2ccccc2CSC[C@@H](C(N)=O)NC(=O)[C@H](Cc2c[nH]c3ccccc23)NC(=O)[C@H](Cc2c[nH]c3ccccc23)NC(=O)[C@H](CCC(N)=O)NC(=O)[C@H](CCC(=O)O)NC(=O)[C@H](Cc2c[nH]c3ccccc23)NC(=O)[C@@H]2CCCN2C1=O` [VMT-FAP-2-59, PSC-PEG2-[C(oXdB)TPWEQWWC]-NH2] ({X1-PEG2}-CTPWEQWWC-NH2; linker 1-9 via oXylylene)?
Answer: pKi [1]: 9.44; Ki [2]: No binding; Kd (human DPPIV): No binding; pKd (human FAP): 8.70; Kd (human PREP): No binding
